The source of these data is US7855166B2, “Sulfonylamino(thio)carbonyl compounds” (Bayer Cropscience GmbH, priority 2005, dated 2010).

The test system of assay [1] is weed plants such as Sinapis alba, Echinochloa crus-galli, Lolium multiflorum, Chrysanthemum segetum, Setaria viridis, Abutilon theophrasti, Amaranthus …. Kind of assay: Post-emergence effect on weeds (greenhouse pot test, visual scoring). In kind it is in vivo. To be noted: applied post-emergence (three-leaf stage) at a rate of 0.3 kg or less of active substance per hectare; scored after about 3 to 4 weeks in comparison to untreated controls.

In assay [2] the test system is weed plants such as Sinapis alba, Chrysanthemum segetum, Avena sativa, Stellaria media, Echinochloa crus-galli, Lolium multiflorum, Setaria viridis, Abutilon …. Kind of assay: Pre-emergence effect on weeds (greenhouse pot test, visual scoring). In kind it is in vivo. The following applies: applied pre-emergence at a rate of 0.3 kg or less of active substance per hectare; scored after 3 to 4 weeks in comparison to untreated controls.

Take `CCOc1nn(C(=O)NS(=O)(=O)c2ccc(C)c(F)c2I)c(=O)n1C1CC1` [Compound 1.860]: the “herbicidal action against weed plants (effect scored visually)” value in assay [1] is “very good herbicidal action”. For the same compound, the “herbicidal action against weed plants (visual scoring of plant damage or emergence damage)” value in assay [2] was “very good herbidical action”.
In the case of `CCCOc1nn(C(=O)NS(=O)(=O)c2ccc(C)c(F)c2I)c(=O)n1C1CC1` [Compound 1.861], the “herbicidal action against weed plants (effect scored visually)” value in assay [1] was “very good herbicidal action”. Also, the “herbicidal action against weed plants (visual scoring of plant damage or emergence damage)” value in assay [2] was “very good herbidical action”.
On the same counts, the results for `COc1nn(C(=O)NS(=O)(=O)c2cc(C)c(C)cc2I)c(=O)n1C` [Compound 1.862] are “very good herbicidal action” and “very good herbidical action”.
For `CCOc1nn(C(=O)NS(=O)(=O)c2cc(C)c(C)cc2I)c(=O)n1C` [Compound 1.863] the same measures were “very good herbicidal action” and “very good herbidical action”.
On the same counts, the results for `CCCOc1nn(C(=O)NS(=O)(=O)c2cc(C)c(C)cc2I)c(=O)n1C` [Compound 1.864] are “very good herbicidal action” and “very good herbidical action”.
With `Cc1cc(I)c(S(=O)(=O)NC(=O)n2nc(OC(C)C)n(C)c2=O)cc1C` [Compound 1.865], the “herbicidal action against weed plants (effect scored visually)” value in assay [1] is recorded as “very good herbicidal action”. Also, the “herbicidal action against weed plants (visual scoring of plant damage or emergence damage)” value in assay [2] is “very good herbidical action”.
On the same counts, the results for `COc1nn(C(=O)NS(=O)(=O)c2cc(C)c(C)cc2I)c(=O)n1C1CC1` [Compound 1.866] are “very good herbicidal action” and “very good herbidical action”.
On the same counts, the results for `CCOc1nn(C(=O)NS(=O)(=O)c2cc(C)c(C)cc2I)c(=O)n1C1CC1` [Compound 1.867] are “very good herbicidal action” and “very good herbidical action”.
As for `CCCOc1nn(C(=O)NS(=O)(=O)c2cc(C)c(C)cc2I)c(=O)n1C1CC1` [Compound 1.868], the “herbicidal action against weed plants (effect scored visually)” value in assay [1] is reported as “very good herbicidal action”. Moreover, the “herbicidal action against weed plants (visual scoring of plant damage or emergence damage)” value in assay [2] was “very good herbidical action”.
Consider `COc1nn(C(=O)NS(=O)(=O)c2ccc(Cl)cc2I)c(=O)n1C` [Compound 1.869], for which the “herbicidal action against weed plants (effect scored visually)” value in assay [1] is given as “very good herbicidal action”. The “herbicidal action against weed plants (visual scoring of plant damage or emergence damage)” value in assay [2] is recorded as “very good herbidical action”.
Consider `CCOc1nn(C(=O)NS(=O)(=O)c2ccc(Cl)cc2I)c(=O)n1C` [Compound 1.870], for which the “herbicidal action against weed plants (effect scored visually)” value in assay [1] is recorded as “very good herbicidal action”. Moreover, in assay [2], the “herbicidal action against weed plants (visual scoring of plant damage or emergence damage)” value is “very good herbidical action”.
On the same counts, the results for `CCCOc1nn(C(=O)NS(=O)(=O)c2ccc(Cl)cc2I)c(=O)n1C` [Compound 1.871] are “very good herbicidal action” and “very good herbidical action”.
For `CC(C)Oc1nn(C(=O)NS(=O)(=O)c2ccc(Cl)cc2I)c(=O)n1C` [Compound 1.872] the same measures were “very good herbicidal action” and “very good herbidical action”.
As to `COc1nn(C(=O)NS(=O)(=O)c2ccc(Cl)cc2I)c(=O)n1C1CC1` [Compound 1.873], the “herbicidal action against weed plants (effect scored visually)” value in assay [1] was “very good herbicidal action”. In assay [2], the “herbicidal action against weed plants (visual scoring of plant damage or emergence damage)” value is given as “very good herbidical action”.
On the same counts, the results for `CCOc1nn(C(=O)NS(=O)(=O)c2ccc(Cl)cc2I)c(=O)n1C1CC1` [Compound 1.874] are “very good herbicidal action” and “very good herbidical action”.
On the same counts, the results for `CCCOc1nn(C(=O)NS(=O)(=O)c2ccc(Cl)cc2I)c(=O)n1C1CC1` [Compound 1.875] are “very good herbicidal action” and “very good herbidical action”.
For `CCCc1ccc(S(=O)(=O)NC(=O)n2nc(OC)n(C)c2=O)c(I)c1` [Compound 1.876] the same measures were “very good herbicidal action” and “very good herbidical action”.
Take `CCCc1ccc(S(=O)(=O)NC(=O)n2nc(OCC)n(C)c2=O)c(I)c1` [Compound 1.877]: the “herbicidal action against weed plants (effect scored visually)” value in assay [1] was “very good herbicidal action”. The “herbicidal action against weed plants (visual scoring of plant damage or emergence damage)” value in assay [2] is “very good herbidical action”.
For `CCCOc1nn(C(=O)NS(=O)(=O)c2ccc(CCC)cc2I)c(=O)n1C` [Compound 1.878], the “herbicidal action against weed plants (effect scored visually)” value in assay [1] is listed as “very good herbicidal action”. Besides, the “herbicidal action against weed plants (visual scoring of plant damage or emergence damage)” value in assay [2] is on record as “very good herbidical action”.
For `CCCc1ccc(S(=O)(=O)NC(=O)n2nc(OC(C)C)n(C)c2=O)c(I)c1` [Compound 1.879] the same measures were “very good herbicidal action” and “very good herbidical action”.
Consider `CCCc1ccc(S(=O)(=O)NC(=O)n2nc(OC)n(C3CC3)c2=O)c(I)c1` [Compound 1.880], for which, in assay [1], the “herbicidal action against weed plants (effect scored visually)” value is recorded as “very good herbicidal action”. In addition, in assay [2], the “herbicidal action against weed plants (visual scoring of plant damage or emergence damage)” value was “very good herbidical action”.
On the same counts, the results for `CCCc1ccc(S(=O)(=O)NC(=O)n2nc(OCC)n(C3CC3)c2=O)c(I)c1` [Compound 1.881] are “very good herbicidal action” and “very good herbidical action”.
`CCCOc1nn(C(=O)NS(=O)(=O)c2ccc(CCC)cc2I)c(=O)n1C1CC1` [Compound 1.882]: the “herbicidal action against weed plants (effect scored visually)” value in assay [1] was “very good herbicidal action”. Besides, the “herbicidal action against weed plants (visual scoring of plant damage or emergence damage)” value in assay [2] is on record as “very good herbidical action”.
On the same counts, the results for `CCCCc1ccc(S(=O)(=O)NC(=O)n2nc(OCC)n(C)c2=O)c(I)c1` [Compound 1.883] are “very good herbicidal action” and “very good herbidical action”.
`CCCCc1ccc(S(=O)(=O)NC(=O)n2nc(OCCC)n(C)c2=O)c(I)c1` [Compound 1.884]: the “herbicidal action against weed plants (effect scored visually)” value in assay [1] is recorded as “very good herbicidal action”. For the same compound, in assay [2], the “herbicidal action against weed plants (visual scoring of plant damage or emergence damage)” value is listed as “very good herbidical action”.
On to `CCCCc1ccc(S(=O)(=O)NC(=O)n2nc(OC)n(C)c2=O)c(I)c1` [Compound 1.885], for which the “herbicidal action against weed plants (effect scored visually)” value in assay [1] is “very good herbicidal action”. Further, the “herbicidal action against weed plants (visual scoring of plant damage or emergence damage)” value in assay [2] is “very good herbidical action”.
